The Km is the substrate concentration at which the rate is half of its maximum.

“Also recorded” adds a separate entry of the source. Where two headings read alike, the source gives them in different places. Where no end group is shown, it is not given here. The star is where a group is joined. Biotin = O=C1N[C@H]2[C@H](CS[C@H]2CCCCC(=O)*)N1

For data set [1], the system named is N-acetylgalactosamine‒specific lectins. The note with it: cited from earlier work.
Data set [2] concerns the target TGM2 (Cavia cutleri, UniProt P08587). Format: biochemical, guinea pig liver.
Data set [3] relates to LPS-treated dorsal skin of mice. On the set-up: species or system Female C57BL/6J mice. The note with it: mouse, in vivo.
The format of data set [4] is physicochemical. The note with it: pH 5.
A further data set deals with human CLEC10A (CD301). The note with it: cited from earlier work.
Data set [5] relates to TGM2. The note with it: cited from earlier work.
Data set [6] concerns recombinant human siglecs. The note with it: cited from earlier work.
For data set [7], the system named is sialic acid‒specific plant lectins. The note with it: cited from earlier work.
The test system of data set [8] is TGM2. The note with it: cited from earlier work. The source holds these as a separate data set.

Sequence of TGM2 (Cavia cutleri, UniProt P08587) (P08587 whole entry): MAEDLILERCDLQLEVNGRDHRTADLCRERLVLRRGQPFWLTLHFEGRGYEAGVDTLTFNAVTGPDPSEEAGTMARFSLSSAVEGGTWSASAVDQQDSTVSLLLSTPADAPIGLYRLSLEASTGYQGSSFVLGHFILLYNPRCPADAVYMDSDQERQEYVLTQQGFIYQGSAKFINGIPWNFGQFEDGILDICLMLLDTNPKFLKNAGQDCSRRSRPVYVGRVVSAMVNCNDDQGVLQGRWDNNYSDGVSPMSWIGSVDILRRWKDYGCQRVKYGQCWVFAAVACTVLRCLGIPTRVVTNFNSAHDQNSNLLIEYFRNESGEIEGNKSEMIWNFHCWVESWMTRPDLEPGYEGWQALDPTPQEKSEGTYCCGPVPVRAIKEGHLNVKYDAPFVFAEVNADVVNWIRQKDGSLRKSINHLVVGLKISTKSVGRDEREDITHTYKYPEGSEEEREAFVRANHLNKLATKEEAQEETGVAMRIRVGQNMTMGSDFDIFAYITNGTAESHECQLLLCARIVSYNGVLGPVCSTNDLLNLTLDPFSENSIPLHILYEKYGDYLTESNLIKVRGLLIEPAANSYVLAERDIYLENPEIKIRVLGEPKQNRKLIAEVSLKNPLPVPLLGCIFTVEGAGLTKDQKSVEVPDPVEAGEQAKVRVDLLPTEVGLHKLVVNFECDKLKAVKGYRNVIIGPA

Consider [(VQATQSNQHTPR-GGGS)2K2]K-NH2 [svL4], for which the “binding to other N-acetylgalactosamine‒specific lectins” value in data set [1] is “bind specifically to human CLEC10A ([Hoober, 2020]) and other N-acetylgalactosamine‒specific lectins”. At TGM2 [2], the “TGM2 functional substrate / cross-linking to lysine” value is listed as “the enzyme can use glutamine from the arms; also recorded: functional substrates of transglutaminase (TGM) 2” and the “TGM2 substrate activity with aged enzyme” value is reported as “lost over half of the activity”. For the same molecule, on TGM2 [2] (pH 7.5), the Km worked out at 7 µM. In addition, in data set [3], the “epidermal disruption / integrity of skin surface” value is reported as “restored the integrity of the skin surface, with no epidermal disruptions”; the “epidermal morphology / thickness” value is reported as “uniformly of normal thickness; also recorded: normal morphology with thin epidermis; also recorded: the epidermis had returned to a normal morphology”; the mean epidermal thickness stood at 16.1 μm; the “neutrophils (Ly6G^+) in dermis” value is “nearly free of neutrophils; also recorded: essentially free of neutrophils; also recorded: neutrophils were absent”. Also, in data set [3], the “neutrophils in the dermis (summary statement)” value is recorded as “loss of neutrophils in the dermis”, the “repair of structural disruption of the epidermis (general statement)” value is reported as “repair of areas of structural disruption of the epidermis; also recorded: structural disruption of the epidermis was repaired” and the “thickness of the epidermis (summary statement)” value is recorded as “reduction of the thickness of the epidermis”. Also, in [3] (sc), the “density of dermal collagen” value is “an increased density of dermal collagen was noted”; the “epidermal disruption / recovery, lesions” value is listed as “no recovery occurred”; the epidermal thickness entry is on record as “did not reduce epidermal thickness”. In [4], this molecule had a positive charge of 12. For the same molecule, the “binding to human CLEC10A” value in the data set with human CLEC10A (CD301) is “binds with high specificity and avidity to recombinant and native human CLEC10A (CD301); also recorded: bind specifically to human CLEC10A”.
Turning to [(VQATQS-GGGS)2K2]K-NH2 [svC1], at TGM2 [2], the “Km relative to svL4” value is reported as “higher Km values”; the “TGM2 functional substrate / cross-linking to lysine” value is given as “the enzyme can use glutamine from the arms”; the “TGM2 substrate activity” value is listed as “poor substrates in vitro”; the “TGM2 substrate activity with aged enzyme” value is reported as “to a lesser extent, svC1 as substrates”. In [3], the mean epidermal thickness is 15.5 μm and the “reduction of epidermal thickness” value was “active in reducing the thickness of the epidermis”. Further, the “binding to human CLEC10A” value with human CLEC10A (CD301) was “does not bind to CLEC10A”.
Consider `[Ca+2]` [Ca^2+, calcium ion], for which the “activation constant, KA” value in the data set with TGM2 [5] is 6.9 mM.
As to [(NPSHPLSG-GGGS)2K]2K-NH2 [svH1C], in [3], the “effectiveness, topical (general statement)” value is on record as “not effective when applied topically”; the “epidermal disruption / integrity of skin surface” value is listed as “not when applied topically”; the “epidermal morphology / thickness” value is given as “ineffective in restoring normal epidermal morphology”. Besides, in [3] (sc), the “epidermal disruption / recovery, lesions” value was “effective when injected subcutaneously; also recorded: lesions were absent”; the epidermal thickness entry is on record as “most areas of the skin contained a thickened epidermis”; the neutrophils in dermis result is given as “abundant neutrophils in the dermis”. In addition, in data set [6], the “binding to recombinant human siglecs” value was “recombinant human siglecs”. In data set [7], the “binding to sialic acid‒specific plant lectins” value is “binds to sialic acid‒specific plant lectins”.
As to [(NQHTPR-GGGS)2K2]K-NH2 [sv6D], the “binding to other N-acetylgalactosamine‒specific lectins” value in data set [1] was “bind specifically to human CLEC10A ([Hoober, 2020]) and other N-acetylgalactosamine‒specific lectins”. On TGM2 [2], the “Km relative to svL4” value is recorded as “higher Km values”, the “TGM2 functional substrate / cross-linking to lysine” value is reported as “the enzyme can use glutamine from the arms; also recorded: functional substrates of transglutaminase (TGM) 2”, the “TGM2 substrate activity” value is reported as “poor substrates in vitro” and the “TGM2 substrate activity with aged enzyme” value is “gained the ability to use sv6D”. In data set [3], the mean epidermal thickness came to 17.1 μm and the “repair of structural disruption of the epidermis (general statement)” value was “structural disruption of the epidermis was repaired”. In addition, the positive charge in data set [4] is recorded as 12. Further, the “binding to human CLEC10A” value with human CLEC10A (CD301) is “binds with high specificity and avidity to recombinant and native human CLEC10A (CD301); also recorded: bind specifically to human CLEC10A”.
Consider Biotin-TVQQEL, for which, in the data set on TGM2 [5] (read-out: Km of standard peptide), the Michaelis constant (Km) was 1 µM.
Consider carbobenzoxy-L-glytaminylglycine, for which the Km in the data set on TGM2 [5] was 22000 µM.
As for `C[C@@H]1C[C@H]2[C@@H]3CCC4=CC(=O)C=C[C@]4(C)[C@@]3(F)[C@@H](O)C[C@]2(C)[C@@]1(O)C(=O)CO` [dexamethasone], the “induction of TGM2 expression” value in the data set with TGM2 [8] was “Expression of TGM2 is induced”.
With `NCCCCN` [putrescine], in the data set with TGM2 [5], the “acceptor amine (second substrate) activity” value is listed as “active second substrates”.
On to `NCCCCNCCCN` [spermidine], for which the “acceptor amine (second substrate) activity” value with TGM2 [5] is reported as “active second substrates”.

These data come from publication PMC9418603 (JID Innovations, 2022).
